Entries after “also recorded” stand apart in the source; their conditions may differ. Like-named read-outs stand apart in the source and are kept apart here.
Experiments:
dermal CYP1A = test: in vitro; conditions: for inhibitory effect on dermal CYP1A activity, in words: at certain concentration (1, 10 or 100 μM); for enhancing effect on dermal CYP1A activity, in words: at certain concentrations (1, 10 or 100 μM)
Source text: (§1) Nude mice were sacrificed by decapitation.
(§2) The precipitate containing the microsomes was obtained.

liver CYP1A [1] = test system: liver CYP1A
Description: (§3) Nude mice were sacrificed by decapitation. The skin and liver were immediately removed and kept in ice bath or 4° C. […] Connective tissue, blood, and fat were carefully removed from the tissue. Excess water content was removed from the homogenized tissue by tissue papers before the tissue was weighed.
(§4) The suspension of homogenized tissue in potassium chloride solution was transferred into a Teflon pestle-glass homogenizer for homogenization for six (6) times. Then, potassium chloride solution was added into the homogenized suspension to bring the volume to about four (4) times of the homogenized suspension. The diluted suspension was 5 transferred into a centrifuge tube and centrifuged at 4° C., 9000 xg, for twenty (20) minutes. The supernatant containing microsomes from skin or liver tissue and other soluble substance were removed and the volume of the supernatant was brought up to four (4) times of the weight of the tissue by adding potassium chloride solution. The diluted supernatant was transferred into a centrifuge tube and centrifuged at 4° C., 100,000 xg, for one (1) hour (Beckman L8-80M). The precipitate containing the microsomes was obtained. Potassium chloride solution was added into the precipitate to bring the volume up to four (4) times of the weight of the tissue, and the suspension was centrifuged at 4° C., 100,000 xg for one (1) hour, to obtain the washed microsomes, which were stored at −78° C. in 0.1M KH2PO4-K2HPO4 buffer (pH=7.4).
(§5) The enzymatic activity of CYP1A was determined based on the activity of 7-ethoxyresorufin-O-deethylase (i.e., for CYP1A) and 7-methoxyresorufin-O-demethylase (i.e., CYP1A2). […] Except for the blank group, the reaction was triggered by adding 0.54 μM NADPH. In the test tube (16×100 mm), the reaction was carried out for ten (10) minutes at constant temperature (37° C.) with vibration and without light Methanol 2.5 ml was added into the reaction mixture to stop the reaction. Protein precipitate was removed from the reaction mixture by centrifuging the reaction mixture at 180 xg for ten (10) minutes. The supernatant was tested for florescent intensity with 550 nm as the excitation wavelength and 585 nm the emission wavelength. The florescent intensity was compared with 0.01 μM-0.1 μM standard Rhodamine B solution to obtain the reading of the CYP1A enzyme activity.

CYP1A [2] = test: in vitro; conditions: nude, mouse
Source text: as §1, §2

CYP1A [3] = test: Liver microsomal CYP1A enzymatic activity, inhibition or enhancement; conditions: nude, mouse
Description: as §3, §4, §5

liver CYP1A [4] = test: as above; conditions: at certain concentration (1, 10 or 100 μM)
Description: as §3, §4, §5

[5] = pH 7.8, dermal CYP1A activity (% of control group)
[6] = pH 7.8, inhibition of dermal CYP1A activity
[7] = liver microsomes, pH 7.8, probe 7-ethoxyresorufin

SMILES | activity at 10 min, 1 µM (CYP1A [2]; [5]) | activity at 10 min, 10 µM (CYP1A [2]; [5]) | activity at 10 min, 100 µM (CYP1A [2]; [5]) | activity at 10 min, 1 µM (CYP1A [3]; [7]) | activity at 10 min, 10 µM (CYP1A [3]; [7]) | activity at 10 min, 100 µM (CYP1A [3]; [7]) | enhancing effect on liver CYP1A activity, in words (liver CYP1A [4]) | inhibitory effect on liver CYP1A activity, in words (liver CYP1A [4]) | activity at 10 min, 1 µM (CYP1A [2]; pH 7.8) | activity at 10 min, 10 µM (CYP1A [2]; pH 7.8) | activity at 10 min, 100 µM (CYP1A [2]; pH 7.8) | inhibition at 10 min, 100 µM (CYP1A [2]; pH 7.8) | inhibitory effect on dermal CYP1A activity, in words (dermal CYP1A) | further results
O=c1cc(-c2ccccc2)oc2c1ccc1ccccc12 [Alpha-NF, α-naphthoflavone] |  |  |  |  |  |  |  |  |  |  |  |  |  | dose dependence of the inhibitory effect on dermal CYP1A (dermal CYP1A): dose-dependent; inhibition of dermal microsomal CYP1A activity (dermal CYP1A): more than 90%; dermal CYP1A activity (% of control group) (dermal CYP1A; 100 µM): 0.83%; liver CYP1A activity (% of control group) (liver CYP1A [1]; 1 µM): 32.91%; liver CYP1A activity (% of control group) (liver CYP1A [1]; 10 µM): 11.06%; liver CYP1A activity (% of control group) (liver CYP1A [1]; 100 µM): 7.77%
CC12CCC(CC1)C(C)(C)O2 [Cineole] | 199% | 130% | 96.4% | 117% | 99.9% | 94.7% | enhancing effect | inhibitory effects |  |  |  |  |  | inhibition at 10 min, 100 µM (CYP1A [2]; [6]): ~5%
O=c1c(-c2ccc(O)cc2)coc2cc(O[C@@H]3O[C@H](CO)[C@@H](O)[C@H](O)[C@H]3O)ccc12 [Daidzin] |  |  |  | 110% | 112% | 111% | enhancing effect |  | 111% | 84.2% | 70.4% | ~30% | inhibition effects | enhancing effect on dermal CYP1A activity, in words (dermal CYP1A): enhancing effects
COc1ccc(-c2cc(=O)c3c(O)cc(O[C@@H]4O[C@H](CO[C@@H]5O[C@@H](C)[C@H](O)[C@@H](O)[C@H]5O)[C@@H](O)[C@H](O)[C@H]4O)cc3o2)cc1O [Diosmin] |  |  |  | 108% | 97.3% | 43.8% | enhancing effect | inhibitory effects | 64.3% | 54.3% | 32.9% | ~67% |  | 
CC(C)[C@@H](C)/C=C/[C@@H](C)[C@H]1CC[C@H]2C3=CC=C4C[C@@H](O)CC[C@]4(C)[C@H]3CC[C@]12C [Ergosterol] |  |  |  | 103% | 104% | 97.7% | enhancing effect | inhibitory effects |  | 57.3% | 52.2% |  |  | 
COc1ccc(-c2coc3cc(O)ccc3c2=O)cc1 [Formononetin] | 67% | 109% | 85.9% | 121% | 144% | 145% | enhancing effect; also recorded: most enhancing effect |  |  |  |  |  |  | inhibition at 10 min, 1 µM (CYP1A [2]; [6]): ~33%
O=c1c(-c2ccc(O)cc2)coc2cc(O)cc(O)c12 [Genistein] |  |  |  | 109% | 108% | 109% | enhancing effect |  | 77.4% | 60.2% | 35.4% | ~65% | inhibition effects | 
CC1(C)[C@@H](O[C@H]2O[C@H](C(=O)O)[C@@H](O)[C@H](O)[C@H]2O[C@@H]2O[C@H](C(=O)O)[C@@H](O)[C@H](O)[C@H]2O)CC[C@]2(C)[C@H]3C(=O)C=C4[C@@H]5C[C@@](C)(C(=O)O)CC[C@]5(C)CC[C@@]4(C)[C@]3(C)CC[C@@H]12 [Glycyrrihizin, Glycyrrhizin] |  |  |  | 118% | 99.9% | 89.1% | enhancing effect | inhibitory effects | 98.9% | 102% | 107% |  |  | 
O=c1c(O[C@@H]2O[C@H](CO)[C@@H](O)[C@H](O)[C@H]2O)c(-c2ccc(O)c(O)c2)oc2cc(O)cc(O)c12 [Isoquercitrin] | 112% | 67% | 44.2% | 99% | 104% | 95.7% | enhancing effect | inhibitory effects |  |  |  |  | inhibition effects | inhibition at 10 min, 100 µM (CYP1A [2]; [6]): ~56%; enhancing effect on dermal CYP1A activity, in words (dermal CYP1A): enhancing effects
O=c1c(O)c(-c2ccc(O)cc2)oc2cc(O)cc(O)c12 [Kaempferol] | ~34% | ~22% | 0% | 100% | 68.9% | 18.1% |  | inhibitory effects; also recorded: most inhibitory effect; also recorded: most effective inhibitors |  |  |  |  |  | inhibition at 10 min, 100 µM (CYP1A [2]; [6]): > 90%; dose dependence of the inhibitory effect on dermal CYP1A (dermal CYP1A): dose-dependent effect; dermal CYP1A activity (% of control group) (dermal CYP1A; nude, mouse, 10 min, 1 µM, pH 7.8): 33.73%; dermal CYP1A activity (% of control group) (dermal CYP1A; nude, mouse, 10 min, 10 µM, pH 7.8): 22.35%; inhibition at 10 min, 100 µM (CYP1A [3]; [7]): ~82%
CCCCCCCCCCCCO [Lauryl alcohol] |  |  |  | 113% | 115% | 101% | enhancing effect |  | 88.2% | 97.2% | 52.4% | ~48% |  | 
CC(Cc1ccc(O)c(O)c1)C(C)Cc1ccc(O)c(O)c1 (stereo not drawn) [Nordihydroguaiaretic acid] |  |  |  | 140% | 147% | 119% | enhancing effect; also recorded: most enhancing effect |  | 110% | 96.6% | 59.5% | ~41% |  | 
CC1(C)CC[C@]2(C(=O)O)CC[C@]3(C)C(=CC[C@@H]4[C@@]5(C)CC[C@H](O)C(C)(C)[C@@H]5CC[C@]43C)[C@@H]2C1 [Oleanolic acid] |  |  |  | 94% | 99.9% | 87.3% |  | inhibitory effects |  |  |  |  | inhibition effects | activity at 10 min, 1 µM (CYP1A [2]; skin (dermal) microsomes, pH 7.8, probe 7-ethoxyresorufin, dermal CYP1A activity (% of control group), compound 1 μM, skin microsomes, mean of at least 3 repeats): 24%; activity at 10 min, 10 µM (CYP1A [2]; skin (dermal) microsomes, pH 7.8, probe 7-ethoxyresorufin, dermal CYP1A activity (% of control group), compound 10 μM, skin microsomes, mean of at least 3 repeats): 25.7%; activity at 10 min, 100 µM (CYP1A [2]; skin (dermal) microsomes, pH 7.8, probe 7-ethoxyresorufin, dermal CYP1A activity (% of control group), compound 100 μM, skin microsomes, mean of at least 3 repeats): 46.7%; inhibition at 10 min, 1 µM (CYP1A [2]; skin (dermal) microsomes, pH 7.8, probe 7-ethoxyresorufin, inhibition of dermal CYP1A activity, compound 1 μM): ~76%
C[C@@]12C[C@@]3(O)O[C@@H](O1)[C@]1(COC(=O)c4ccccc4)[C@H]3C[C@@]12O[C@@H]1O[C@H](CO)[C@@H](O)[C@H](O)[C@H]1O [Paeoniflorin] | 91% | 105% | 104% | 123% | 124% | 121% | enhancing effect |  |  |  |  |  |  | 
O=C(O)c1ccc(O)c(O)c1 [Protocatechuic acid] | 138% | 121% | 102% | 119% | 123% | 107% | enhancing effect |  |  |  |  |  |  | 
O=c1c(O)c(-c2ccc(O)c(O)c2)oc2cc(O)cc(O)c12 [Quercetin] |  |  |  | 114% | 86.7% | 19.2% | enhancing effect | inhibitory effects; also recorded: most inhibitory effect; also recorded: most effective inhibitors | 67.9% | 41.9% | 8.37% | ~92% |  | 
C[C@@H]1O[C@@H](Oc2c(-c3ccc(O)c(O)c3)oc3cc(O)cc(O)c3c2=O)[C@H](O)[C@H](O)[C@H]1O [Quercitrin] |  |  |  |  | 104% | 89.2% | enhancing effect | inhibitory effects | 87.8% | 77.1% | 75% | ~25% | inhibition effects | activity at 10 min, 1 µM (CYP1A [3]; pH 7.8): 109%
C[C@@H]1O[C@@H](OC[C@H]2O[C@@H](Oc3c(-c4ccc(O)c(O)c4)oc4cc(O)cc(O)c4c3=O)[C@H](O)[C@@H](O)[C@@H]2O)[C@H](O)[C@H](O)[C@H]1O [Rutin] | 94.1% | 98.4% | 59.2% | 117% | 124% | 90.7% | enhancing effect | inhibitory effects |  |  |  |  | inhibition effects | inhibition at 10 min, 100 µM (CYP1A [2]; [6]): ~41%; enhancing effect on dermal CYP1A activity, in words (dermal CYP1A): enhancing effects
O=c1ccc2ccc(O)cc2o1 [Umbelliferone] |  |  |  | 120% | 119% |  | enhancing effect |  | 72.5% | 52.7% | 75.8% |  |  | inhibition at 10 min, 10 µM (CYP1A [2]; pH 7.8): ~47%
